Test system: forskolin/IBMX-stimulated CFTR Cl current in ileum tissue
Experiment: Short-circuit current of freshly excised ileum tissue measured by Ussing chamber
Format: cell-based, rabbit
Settings: CFTR+/+ rabbits
Experimental: (Panel A) Immunocytochemistry of lungs and small intestines from CFTR+/+ and CFTR−/− rabbits. Red: CFTR; blue: nuclei. (Panel B) Short circuit current measurements of small intestines from CFTR+/+ and CFTR−/− rabbits after treated 1 μM indomethcin.
CFTR expression in the airways and in the small intestines of wild-type and CFTR−/− rabbits was evaluated by immunoflorescence. […] Next, CFTR Cl secretion in these animals were examined. Ileum tissues from CFTR+/+ and CFTR−/− rabbits were used for CFTR functional assay. Short-circuit currents from these tissues with muscle layer on serosal side removed were measured by Ussing chamber. […] This situation was also observed in ferrets and pigs.

Row | Compound | forskolin-stimulated current blocked | forskolin-stimulated current blocked (GlyH101 at 10 μM)
1 | CCCCNc1cc(C(=O)O)cc(S(N)(=O)=O)c1Oc1ccccc1 [bumetanide] | more than 50% | –
2 | O=C(CNc1ccc2ccccc2c1)N/N=C/c1cc(Br)c(O)c(Br)c1O [GlyH101] | – | Only a small fraction

— patent publication US20180132458A1, “TRANSGENIC ANIMAL MODELS FOR CYSTIC FIBROSIS” (THE REGENTS OF THE UNIVERSITY OF MICHIGAN, priority 2016, published 2018)
